Experiments:
Wistar rats = assay: Tissue free fatty acid and triglyceride content following infusion in normal-fed rats; type: in vivo, rat
Method: Surgery. Experiments were performed on male Wistar rats. Animals were randomly assigned to experimental groups as outlined below. Induction and maintenance of surgical anesthesia was by 3-5% halothane and 2L oxygen. An initial blood sample was taken from a tail artery for measurement of baseline levels of blood glucose and lactate, electrolyte, acid base and oxygen status and serum levels of free fatty acids, triglyceride and cholesterol. Immediately following this, the trachea was cannulated and the animal ventilated at 60-70 breaths.min-1 with air supplemented with O2. The respiratory rate and end-tidal pressure (10-15 cmH2O) were adjusted to maintain end-tidal CO2 at 35-40 mmHg. Body temperature was maintained at 37° C. throughout surgery and the experiment by a heating pad. The carotid artery and jugular vein were cannulated with a solid-state blood pressure transducer and a saline filled PE 50 catheter respectively. For the antagonist infusion studies, surgery was similar to above with the alteration being that both the carotid artery and jugular vein were cannulated with saline filled PE 50 catheters. Fluids (saline or hormone dissolved in saline) were delivered to the jugular vein with a Y-connector to join the two lines. The carotid artery line was connected to a blood pressure transducer. Blood samples were taken from this line at time zero (baseline reading), 30 minutes and every 20 minutes until the end of the experiment at 90 minutes.
Infusion. […] Blood glucose measurements were taken from tail capillaries at 5-minute intervals throughout the duration of the experiment. At the end of the infusion a terminal blood sample was taken by cardiac puncture and analysed as per the basal sample and also for various metabolites and hormones. Serum and plasma samples were stored at −80° C. until future analysis. Animals were killed by cervical dislocation and harvested tissues (brain, liver, kidney, soleus muscle, extensor digitorum longus muscle, left ventricle, retroperitoneal and epididymal fat pads) snap frozen in liquid N2 and stored at −80° C. until future analysis. For the antagonist studies, the protocols was the same as above with the following changes: Infusion was a combination of antagonist, CGRP or saline.

soleus muscle = assay: Glucose transport (2-deoxy-D-glucose uptake) in incubated soleus muscle strips; type: cell-based, rat
Method: Soleus muscle preparation. All experiments were performed according to protocols approved by the Institutional Animal Ethics Committee. 5-6 week-old male Wistar rats (160 g) were kept on a 12:12-h light/dark cycle, and fed and watered ad libitum. Animals were anaesthetised with 50 mg/kg Nembutal (pentobarbitone sodium), then sacrificed by cervical dislocation. Soleus muscles were dissected under oxygenated KHB (118 mM NaCl, 4.75 mM KCl, 1.2 mM MgSO4, 24.8 mM NaHCO3, 1.2 mM KH2PO4, 2.54 mM CaCl2, 10 mM glucose, pH 7.4) and teased into halves, then incubated as described below.
Determination of rates of glucose transport in incubated soleus muscle strips. 4-5 muscle strips were added to each flask, which contained 10 ml DMEM. They were pre-incubated with hormones as indicated for 30 min at 30° C. in a shaking water bath, after which 5 μl of 2[^3H]DOG (0.5 μCi/ml) and 5 μl D[^14C(U)]sorbitol (0.05 μCi/ml) were added, then incubated for another 30 min; RIA grade BSA was added to 0.9% (w/v) to prevent non-specific binding of insulin to flasks. Following incubation, muscle strips were transferred to ice-cold KHB for 5-10 min to remove excess [^3H]DOG and [^14C]sorbitol. They were then blotted, frozen, tendons excised, then lyophilized for a further 48 h. Muscles were then weighed, transferred to scintillation vials and digested with 0.5 ml 1 M NaOH at 60° C. for 1 h. Scintillation fluid (4 ml) was added to each vial, and samples counted in a Beckman liquid scintillation spectrometer, preset to count ^14C and ^3H channels simultaneously. The amount of each isotope present in the samples was determined and used to calculate the extracellular space and the intracellular concentration of [^3H]DOG. The accumulation of intracellular [^3H]DOG, a measure of muscle glucose uptake, was calculated by subtracting the concentration of [^3H]DOG in the extracellular space from the corresponding total muscle [^3H]DOG]; extracellular [^3H]DOG was quantified by measuring the muscle concentration of [^14C]sorbitol.
Data analysis. One way ANOVA, Dunnett's Multiple Comparisons Test, and unpaired Student's t-tests were used to calculate the statistical significance of differences, as appropriate. Dose-response curves were fitted to a sigmoidal dose-response algorithm, as follows: Y=minimum+(maximum−minimum)/([…] log ^(EC50^−X), for 2-DOG-uptake; and by a four parameter logistic model, Y=minimum+(maximum−minimum)/(1+10 log ^(EC50^−X)Hill-Coefficient) for total glycogen and [^14C]glucose incorporation. Calculations were performed using Prism v2.0 (GraphPad Software, San Diego, Calif.) to derive values for half-maximal effective concentration (EC50). Displacement curves derived for competition of bound radioligand with cold ligand in transfected cells were calculated according to a one site competition fit using Prism v2.0.

Row | Substance | FFA content, Heart (Wistar rats; CGRP 100 pmol/kg/min 1 h, CGRP-(8-37) 10 nmol/kg/min 90 minutes, control 0.8 ± 0.2) [µmol/g] | FFA content, Liver (Wistar rats; same infusions, control 0.1 ± 0.01) [µmol/g] | FFA content, Soleus Muscle (Wistar rats; same infusions, control 0.2 ± 0.02) [µmol/g] | FFA content, Kidney (Wistar rats; same infusions, control 0.8 ± 0.1) [µmol/g] | FFA content, Epi Adipose (Wistar rats; same infusions, control 2.1 ± 0.5) [µmol/g] | triglyceride content, Kidney (Wistar rats; same infusions, control 2.8 ± 0.5) [µmol/g] | triglyceride content, Heart (Wistar rats; same infusions, control 2.9 ± 0.4) [µmol/g] | triglyceride content, Soleus Muscle (Wistar rats; same infusions, control 3.7 ± 0.4) [µmol/g] | triglyceride content, Liver (Wistar rats; same infusions, control 4.3 ± 0.3) [µmol/g] | triglyceride content, Epi Adipose (Wistar rats; same infusions, control 5.1 ± 1.2) [µmol/g] | decrease of insulin-stimulated glucose uptake (soleus muscle; amylin 10 nM, insulin 23.7 nM) [%] | 2-DOG-uptake, insulin-stimulated (soleus muscle; amylin (10 nM) + insulin (23.7 nM)) [nmol/g dry-wt muscle/min] | 2-DOG-uptake (soleus muscle; hormone alone (amylin 10 nM; insulin 23.7 nM), basal 8.8 ± 0.9) [nmol/g dry-wt muscle/min]
1 | rat CGRP-1 | 0.9 ± 0.1 | 0.7 ± 0.1 | 0.6 ± 0.07 | 0.9 ± 0.2 | 2.7 ± 0.7 | 2.4 ± 0.4 | 2.6 ± 0.4 | 1.5 ± 0.2 | 2.2 ± 0.5 | 5.0 ± 0.9 | – | – | –
2 | Rat amylin | – | – | – | – | – | – | – | – | – | – | 31 | 19.5±3.6 | 13.4 ± 2.4

Source: US20040038861A1, “Methods and compositions for normalizing lipid levels in mammalian tissues” (priority 2001, published 2004)
